Test results published in patent publication US8877769B2, “Heteroaryl-substituted urea modulators of fatty acid amide hydrolase” (Janssen Pharmaceutica NV, priority 2008, dated 2014).

Key:
Rat FAAH = target: T1, Rat FAAH (Rattus norvegicus, UniProt P97612); test: Assay Method 2: FAAH assay, 3H-anandamide hydrolysis in cell homogenate; assay type: biochemical; conditions: average of results obtained, > value = solubility limit or highest concentration tested
T1 construct: expressed in transfected cells
T1 sequence (P97612 1-579): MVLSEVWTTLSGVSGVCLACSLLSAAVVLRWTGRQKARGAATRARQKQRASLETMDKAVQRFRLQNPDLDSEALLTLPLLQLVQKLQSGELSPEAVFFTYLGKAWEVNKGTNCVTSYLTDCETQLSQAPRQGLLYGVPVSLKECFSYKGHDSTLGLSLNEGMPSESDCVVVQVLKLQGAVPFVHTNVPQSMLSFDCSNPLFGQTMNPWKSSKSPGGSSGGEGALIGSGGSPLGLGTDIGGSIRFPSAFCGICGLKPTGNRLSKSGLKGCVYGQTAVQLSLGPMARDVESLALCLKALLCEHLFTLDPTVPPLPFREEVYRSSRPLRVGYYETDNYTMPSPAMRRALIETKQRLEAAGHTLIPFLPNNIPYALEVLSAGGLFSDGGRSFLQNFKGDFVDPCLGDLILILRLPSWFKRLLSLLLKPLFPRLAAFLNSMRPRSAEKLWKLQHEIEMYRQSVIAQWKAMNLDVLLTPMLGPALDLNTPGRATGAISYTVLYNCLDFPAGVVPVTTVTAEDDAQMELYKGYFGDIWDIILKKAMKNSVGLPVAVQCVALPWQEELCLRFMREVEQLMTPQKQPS
Experimental: A. Transfection of Cells with Rat FAAH
The assay mixture consisted of 50 μL of the cell homogenate, 10 μL of the test compound, and 40 μL of anandamide [1-^3H-ethanolamine] (^3H-AEA, Perkin-Elmer, 10.3 Ci/mmol), which was added last, for a final tracer concentration of 80 nM. The reaction mixture was incubated at rt for 1 h. During the incubation, 96-well Multiscreen filter plates (catalog number MAFCNOB50; Millipore, Bedford, Mass., USA) were loaded with 25 μL of activated charcoal (Multiscreen column loader, catalog number MACL09625, Millipore) and washed once with 100 μL of MeOH. […] After the 1 h incubation, 60 μL of the reaction mixture were transferred to the charcoal plates, which were then assembled on top of the DYNEX plates using Centrifuge Alignment Frames (catalog number MACF09604, Millipore). The unbound labeled ethanolamine was centrifuged through to the bottom plate (5 min at 2000 rpm), which was preloaded with the scintillant, as described above. The plates were sealed and left at rt for 1 h before counting on a Hewlett Packard TopCount.

FAAH = target: T2, FAAH (Homo sapiens, UniProt O00519); test: Assay Method 1: FAAH assay, 3H-anandamide hydrolysis in cell homogenate
T2 sequence (O00519 1-579): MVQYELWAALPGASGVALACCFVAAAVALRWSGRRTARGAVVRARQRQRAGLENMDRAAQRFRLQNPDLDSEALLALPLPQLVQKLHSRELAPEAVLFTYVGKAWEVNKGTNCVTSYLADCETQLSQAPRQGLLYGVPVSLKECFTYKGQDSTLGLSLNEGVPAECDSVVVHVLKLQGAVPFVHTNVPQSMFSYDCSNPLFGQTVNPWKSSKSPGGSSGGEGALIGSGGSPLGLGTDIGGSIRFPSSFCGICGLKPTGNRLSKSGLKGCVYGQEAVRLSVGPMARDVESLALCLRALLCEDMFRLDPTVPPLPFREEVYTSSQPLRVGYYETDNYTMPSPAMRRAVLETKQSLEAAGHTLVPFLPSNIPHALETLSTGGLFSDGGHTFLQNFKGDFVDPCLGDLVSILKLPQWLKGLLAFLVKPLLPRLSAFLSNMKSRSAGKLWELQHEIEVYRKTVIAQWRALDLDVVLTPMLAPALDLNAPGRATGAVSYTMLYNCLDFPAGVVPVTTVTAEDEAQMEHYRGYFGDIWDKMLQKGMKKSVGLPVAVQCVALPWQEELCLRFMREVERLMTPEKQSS

IC50 (Rat FAAH) [nM] | IC50 (FAAH) [nM] | Structure (SMILES)
35 | 14 | O=C(Nc1nocc1Cl)N1CCC(Cc2cnc3ccccc3c2)CC1 [Example 84, 4-Quinolin-3-ylmethyl-piperidine-1-carboxylic acid (4-chloro-isoxazol-3-yl)-amide]
860 | 300 | O=C(Nc1noc2ncccc12)N1CCN(Cc2cccc(Oc3cccc(C(F)(F)F)c3)c2)CC1 [Example 15, 4-[3-(3-Trifluoromethyl-phenoxy)-benzyl]-piperazine-1-carboxylic acid isoxazolo[5,4-b]pyridin-3-ylamide]
> 10000 | 2600 | O=C(Nc1noc2ncccc12)N1CCN(Cc2ccc3ccccc3n2)CC1 [Example 12, 4-Quinolin-2-ylmethyl-piperazine-1-carboxylic acid isoxazolo[5,4-b]pyridin-3-ylamide]
> 400 | > 60 | O=C(Nc1noc2ncccc12)N1CCN(Cc2cccc(Oc3ccc4c(c3)OC(F)(F)O4)c2)CC1 [Example 34, 4-[3-(2,2-Difluoro-benzo[1,3]dioxol-5-yloxy)-benzyl]-piperazine-1-carboxylic acid isoxazolo[5,4-b]pyridin-3-ylamide]
160 | 230 | O=C(Nc1cnc2cccnn12)N1CCN(Cc2ccc3c(c2)OC(F)(F)O3)CC1 [Example 3, 4-(2,2-Difluoro-benzo[1,3]dioxol-5-ylmethyl)-piperazine-1-carboxylic acid imidazo[1,2-b]pyridazin-3-ylamide]
> 10000 | > 10000 | N#Cc1ccc(Oc2cccc(CN3CCN(C(=O)Nc4noc5ncccc45)CC3)c2)cc1C(F)(F)F [Example 19, 4-[3-(4-Cyano-3-trifluoromethyl-phenoxy)-benzyl]-piperazine-1-carboxylic acid isoxazolo[5,4-b]pyridin-3-ylamide]
270 | 22 | N#Cc1ccc(Oc2cccc(CN3CCN(C(=O)Nc4cnc5[nH]ccc5c4)CC3)c2)nc1 [Example 79, 4-[3-(5-Cyano-pyridin-2-yloxy)-benzyl]-piperazine-1-carboxylic acid (1H-pyrrolo[2,3-b]pyridin-5-yl)-amide]
> 10000 | 2000 | O=C(Nc1noc2ncccc12)N1CCN(Cc2cccc(OCc3ccccc3)c2)CC1 [Example 21, 4-(3-Benzyloxy-benzyl)-piperazine-1-carboxylic acid isoxazolo[5,4-b]pyridin-3-ylamide]
430 | 340 | O=C(Nc1noc2ncccc12)N1CCN(Cc2cccc(Oc3ccc(C(F)(F)F)cc3)c2)CC1 [Example 30, 4-[3-(4-Trifluoromethyl-phenoxy)-benzyl]-piperazine-1-carboxylic acid isoxazolo[5,4-b]pyridin-3-ylamide]
> 10000 | > 10000 | O=C(Nc1nc2ccccc2o1)N1CCN(Cc2ccc3c(c2)OC(F)(F)O3)CC1 [Example 68, 4-(2,2-Difluoro-benzo[1,3]dioxol-5-ylmethyl)-piperazine-1-carboxylic acid benzooxazol-2-ylamide]
2000 | 2000 | O=C(NC1=NS(=O)(=O)c2ccccc21)N1CCN(Cc2cccc(Oc3ccc(Cl)cc3)c2)CC1 [Example 59, 4-[3-(4-Chloro-phenoxy)-benzyl]-piperazine-1-carboxylic acid (1,1-dioxo-1H-λ^6-benzo[d]isothiazol-3-yl)-amide]
7000 | 27 | O=C(Nc1ccc2ncoc2c1)N1CCN(Cc2cccc(Oc3ccc(Cl)cc3)c2)CC1 [Example 46, 4-[3-(4-Chloro-phenoxy)-benzyl]-piperazine-1-carboxylic acid benzooxazol-6-ylamide]
110 | 62 | O=C(Nc1cnc2cccnn12)N1CCN(Cc2ccc(Cl)c(Cl)c2)CC1 [Example 2, 4-(3,4-Dichloro-benzyl)-piperazine-1-carboxylic acid imidazo[1,2-b]pyridazin-3-ylamide]
3000 | 370 | O=C(Nc1noc2ncccc12)N1CCN(Cc2ccc(Br)c(Br)c2)CC1 [Example 25, 4-(3,4-Dibromo-benzyl)-piperazine-1-carboxylic acid isoxazolo[5,4-b]pyridin-3-ylamide]
> 10000 | > 10000 | O=C(Nc1noc2ncccc12)N1CCN(Cc2cccc(Oc3ccc(S(=O)(=O)C(F)(F)F)cc3)c2)CC1 [Example 22, 4-[3-(4-Trifluoromethanesulfonyl-phenoxy)-benzyl]-piperazine-1-carboxylic acid isoxazolo[5,4-b]pyridin-3-ylamide]
5000 | 84 | N#Cc1ccnc(Oc2cccc(CN3CCN(C(=O)Nc4cnc5[nH]ccc5c4)CC3)c2)c1 [Example 78, 4-[3-(4-Cyano-pyridin-2-yloxy)-benzyl]-piperazine-1-carboxylic acid (1H-pyrrolo[2,3-b]pyridin-5-yl)-amide]
53 | 34 | O=C(Nc1noc2ncccc12)N1CCN(Cc2cccc(Oc3ccc(Br)cc3)c2)CC1 [Example 24, 4-[3-(4-Bromo-phenoxy)-benzyl]-piperazine-1-carboxylic acid isoxazolo[5,4-b]pyridin-3-ylamide]
30 | 54 | O=C(Nc1cnc2cccnn12)N1CCN(Cc2ccc(OC(F)(F)F)c(Cl)c2)CC1 [Example 4, 4-(3-Chloro-4-trifluoromethoxy-benzyl)-piperazine-1-carboxylic acid imidazo[1,2-b]pyridazin-3-ylamide]
220 | 2000 | O=C(Nc1noc2cccnc12)N1CCN(Cc2ccc3c(c2)OC(F)(F)O3)CC1 [Example 42, 4-(2,2-Difluoro-benzo[1,3]dioxol-5-ylmethyl)-piperazine-1-carboxylic acid isoxazolo[4,5-b]pyridin-3-ylamide]
11 | 6 | O=C(Nc1noc2cnccc12)N1CCN(Cc2ccc3c(c2)OC(F)(F)O3)CC1 [Example 39, 4-(2,2-Difluoro-benzo[1,3]dioxol-5-ylmethyl)-piperazine-1-carboxylic acid isoxazolo[5,4-c]pyridin-3-ylamide]
8000 | 1500 | O=C(Nc1noc2ncccc12)N1CCN(Cc2cccc(Oc3ccccc3Cl)c2)CC1 [Example 8, 4-[3-(2-Chloro-phenoxy)-benzyl]-piperazine-1-carboxylic acid isoxazolo[5,4-b]pyridin-3-ylamide]
8000 | 1600 | O=C(Nc1noc2ncccc12)N1CCN(Cc2ccc3c(c2)OC(F)(F)O3)CC1 [Example 5, 4-(2,2-Difluoro-benzo[1,3]dioxol-5-ylmethyl)-piperazine-1-carboxylic acid isoxazolo[5,4-b]pyridin-3-ylamide]
2000 | 48 | N#Cc1cccnc1Oc1cccc(CN2CCN(C(=O)Nc3cnc4[nH]ccc4c3)CC2)c1 [Example 77, 4-[3-(3-Cyano-pyridin-2-yloxy)-benzyl]-piperazine-1-carboxylic acid (1H-pyrrolo[2,3-b]pyridin-5-yl)-amide]
6000 | 2000 | N#Cc1cccc(Oc2cccc(CN3CCN(C(=O)Nc4noc5ncccc45)CC3)c2)c1 [Example 16, 4-[3-(3-Cyano-phenoxy)-benzyl]-piperazine-1-carboxylic acid isoxazolo[5,4-b]pyridin-3-ylamide]
230 | 230 | O=C(Nc1cnc2cc[nH]c2c1)N1CCN(Cc2ccc3c(c2)OC(F)(F)O3)CC1 [Example 45, 4-(2,2-Difluoro-benzo[1,3]dioxol-5-ylmethyl)-piperazine-1-carboxylic acid (1H-pyrrolo[3,2-b]pyridin-6-yl)-amide]
